Measured values published in patent US8106055B2, “Substituted amide compounds” (Gruenenthal GmbH, priority 2007, dated 2012).

Key:
[1] = target: T1, human bradykinin 1 receptor (B1R) (Homo sapiens, UniProt P46663); assay: Functional investigation on the human bradykinin 1 receptor (B1R), Ca2+ FLIPR assay in CHO K1 hB1R cells; assay type: cell-based; details: B1R antagonism human; test substance 10 μM; Ca2+ FLIPR, CHO K1 hB1R cells
T1 construct: expressed in transfected cells; host or cells: CHO K1 cells
T1 sequence (P46663 1-353): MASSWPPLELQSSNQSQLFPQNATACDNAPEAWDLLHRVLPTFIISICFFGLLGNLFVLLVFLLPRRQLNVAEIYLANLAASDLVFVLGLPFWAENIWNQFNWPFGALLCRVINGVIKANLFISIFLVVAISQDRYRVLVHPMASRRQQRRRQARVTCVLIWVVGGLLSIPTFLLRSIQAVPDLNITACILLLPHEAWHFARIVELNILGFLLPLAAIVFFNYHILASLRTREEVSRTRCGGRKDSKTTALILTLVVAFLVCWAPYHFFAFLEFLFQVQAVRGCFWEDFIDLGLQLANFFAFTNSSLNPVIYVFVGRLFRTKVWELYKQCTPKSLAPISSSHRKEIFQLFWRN
In short: (§1)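 Stably transfected CHO K1 cells loaded with Fluo-4; FLIPR Ca2+ fluorescence peak (ex 488/em 540 nm). Compound added first (agonism vs Lys-Des-Arg9-bradykinin ≥50 nM human, Des-Arg9-bradykinin 10 μM rat), then after 10-20 min agonist at EC80; antagonism as % inhibition, IC50 from concentration series, n=2-3, N≥2.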

[2] = target: T2, bradykinin 1 receptor (B1R) of the rat (Rattus norvegicus, UniProt P97583); assay: Functional investigation on the rat bradykinin 1 receptor (B1R), Ca2+ FLIPR assay in CHO K1 rB1R cells; assay type: cell-based; details: B1R antagonism rat; test substance 10 μM; Ca2+ FLIPR, CHO K1 rB1R cells
T2 construct: expressed in transfected cells; host or cells: CHO K1 cells
T2 sequence (P97583 1-337): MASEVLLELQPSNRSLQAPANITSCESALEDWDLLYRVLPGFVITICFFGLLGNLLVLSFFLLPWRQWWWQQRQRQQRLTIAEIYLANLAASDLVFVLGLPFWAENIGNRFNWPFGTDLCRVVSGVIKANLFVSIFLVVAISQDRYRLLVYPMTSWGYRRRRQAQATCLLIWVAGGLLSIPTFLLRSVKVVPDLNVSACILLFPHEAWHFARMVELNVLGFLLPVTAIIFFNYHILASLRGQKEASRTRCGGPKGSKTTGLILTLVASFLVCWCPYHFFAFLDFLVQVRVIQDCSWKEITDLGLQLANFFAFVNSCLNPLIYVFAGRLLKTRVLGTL
In short: as §1

SMILES	B1R Ant. h [10 μM] % Inhibition [1] [%]	B1R Ant. r [10 μM] % Inhibition [2] [%]
CN(C)C(c1ccc(F)cc1)C1CCC(NC(=O)COC2CCCN(S(=O)(=O)c3ccccc3)C2)CC1 (stereo not shown) [Example 423]	4	−20
COc1cc(C)c(S(=O)(=O)N(CCOCC(=O)NCC2CCC(C(c3cccc(F)c3)N(C)C)CC2)Cc2ccccc2)c(C)c1 (stereo not shown) [Example 388]	74	16
CN(C)C(c1ccc(Cl)cc1)C1CCC(CCNC(=O)COCCN(Cc2ccccc2)S(=O)(=O)c2ccccc2)CC1 (stereo not shown) [Example 426]	−7	9
CN(C)C(c1ccc(F)cc1)C1CCC(NC(=O)COC2CCN(S(=O)(=O)c3ccccc3)CC2)CC1 (stereo not shown) [Example 408]	−16	1
CN(C)C(c1ccc(F)cc1)C1CCC(NC(=O)COCCN(C)S(=O)(=O)c2c(Cl)cccc2Cl)CC1 (stereo not shown) [Example 363]	80	29
CN(C)C(c1ccc(F)cc1)C1CCC(CNC(=O)COCCN(C)S(=O)(=O)c2c(Cl)cc(Cl)cc2Cl)CC1 (stereo not shown) [Example 404]	104	33
COc1cc(C)c(S(=O)(=O)N2CCC(OCC(=O)NC3CCC(C(c4ccc(F)cc4)N(C)C)CC3)C2)c(C)c1 (stereo not shown) [Example 441]	94	84
CN(C)C(c1ccc(F)cc1)C1CCC(CCNC(=O)COCCN(C)S(=O)(=O)c2ccc(Cl)cc2)CC1 (stereo not shown) [Example 377]	28	25
COc1ccc(S(=O)(=O)N2Cc3ccccc3CC2COCC(=O)NCC2CCC(C(CCc3ccccc3)N(C)C)CC2)cc1 (stereo not shown) [Example 373]	98	12
CN(C)C(c1cccc(F)c1)C1CCC(NC(=O)COCCN2CCN(S(=O)(=O)c3ccccc3)CC2)CC1 (stereo not shown) [Example 364]	0	−9
CN(C)C(c1ccc(F)cc1)C1CCC(CNC(=O)COCCN(C)S(=O)(=O)c2ccc(Cl)cc2)CC1 (stereo not shown) [Example 399]	20	29
COc1cc(C)c(S(=O)(=O)N2CCN(CCOCC(=O)NCCC3CCC(C(c4ccc(F)cc4)N(C)C)CC3)CC2)c(C)c1C (stereo not shown) [Example 387]	75	−2
COc1cc(C)c(S(=O)(=O)N2CCC(OCC(=O)NC3CCC(C(c4ccc(F)cc4)N(C)C)CC3)C2)c(C)c1C (stereo not shown) [Example 365]	48	2
CN(C)C(c1ccc(Cl)cc1)C1CCC(CCNC(=O)COC2CCN(S(=O)(=O)c3ccc(F)cc3)C2)CC1 (stereo not shown) [Example 440]	8	31
COc1ccc(S(=O)(=O)N2CCCCC2COCC(=O)NCC2CCC(C(c3ccc(F)cc3)N(C)C)CC2)c(OC)c1 (stereo not shown) [Example 405]	5	24
CN(C)C(c1ccc(F)cc1)C1CCC(NC(=O)COCCN(C)S(=O)(=O)c2cccc(C(F)(F)F)c2)CC1 (stereo not shown) [Example 438]	9	−10

SMILES	B1R Ant. h [10 μM] % Inhibition [1] [%]	B1R Ant. r [10 μM] % Inhibition [2] [%]
CN(C)C(c1ccc(F)cc1)C1CCC(NC(=O)COCCN(C)S(=O)(=O)c2c(Cl)cc(Cl)cc2Cl)CC1 (stereo not shown) [Example 382]	103	30
COc1cc(C)c(S(=O)(=O)N2CCC(OCC(=O)NCC3CCC(C(c4ccc(Cl)cc4)N(C)C)CC3)C2)c(C)c1 (stereo not shown) [Example 403]	106	84
CCN(CCOCC(=O)NCCC1CCC(C(c2ccc(F)cc2)N(C)C)CC1)S(=O)(=O)c1c(C)cc(OC)c(C)c1C (stereo not shown) [Example 413]	96	83
COc1cc(C)c(S(=O)(=O)N2CCC(OCC(=O)NCCC3CCC(C(c4ccc(Cl)cc4)N(C)C)CC3)C2)c(C)c1C (stereo not shown) [Example 412]	40	−5
Cc1cc(C)c(S(=O)(=O)N2CCC(OCC(=O)NCC3CCC(C(c4ccc(F)cc4)N(C)C)CC3)C2)c(C)c1 (stereo not shown) [Example 432]	61	45
COc1cc(C)c(S(=O)(=O)N2CCCC(OCC(=O)NC3CCC(C(c4ccc(F)cc4)N(C)C)CC3)C2)c(C)c1C (stereo not shown) [Example 435]	15	14
CN(C)C(c1cccc(F)c1)C1CCC(CCNC(=O)COC2CCN(S(=O)(=O)c3ccccc3)CC2)CC1 (stereo not shown) [Example 444]	−20	−5
Cc1ccc(S(=O)(=O)N2CCC(OCC(=O)NC3CCC(C(c4ccc(F)cc4)N(C)C)CC3)C2)cc1 (stereo not shown) [Example 371]	7	5
COc1ccc(S(=O)(=O)N2Cc3ccccc3CC2COCC(=O)NCCC2CCC(C(c3ccc(Cl)cc3)N(C)C)CC2)cc1 (stereo not shown) [Example 374]	18	11
COc1cc(C)c(S(=O)(=O)N(C)CCOCC(=O)NCCC2CCC(C(c3ccc(F)cc3)N(C)C)CC2)c(C)c1 (stereo not shown) [Example 392]	104	103
COc1ccc(S(=O)(=O)N(C)CCOCC(=O)NCC2CCC(C(c3ccc(Cl)cc3)N(C)C)CC2)cc1OC (stereo not shown) [Example 379]	−5	49
CN(C)C(c1ccc(F)cc1)C1CCC(CCNC(=O)COCCN(C)S(=O)(=O)c2cccc(C(F)(F)F)c2)CC1 (stereo not shown) [Example 368]	39	17
CN(C)C(c1ccc(Cl)cc1)C1CCC(CCNC(=O)COC2CCCCC2N(C)S(=O)(=O)c2ccc(Cl)c(Cl)c2)CC1 (stereo not shown) [Example 410]	1	6
CN(C)C(c1ccc(Cl)cc1)C1CCC(CNC(=O)COC2CCN(S(=O)(=O)c3ccc(F)cc3)C2)CC1 (stereo not shown) [Example 394]	2	21
CN(C)C(c1ccc(F)cc1)C1CCC(CNC(=O)COC2CCN(S(=O)(=O)c3cccc(C(F)(F)F)c3)C2)CC1 (stereo not shown) [Example 402]	0	45
CCN(CCOCC(=O)NC1CCC(C(c2ccc(F)cc2)N(C)C)CC1)S(=O)(=O)c1c(C)cc(OC)c(C)c1C (stereo not shown) [Example 396]	70	68
